Data on one compound can be found in patent EP1330254B1, “TREATMENT OF CANCERS BY APLIDINE IN CONJUNCTION WITH CARNITINE OR ACETYLCARNITINE” (priority 2000, dated 2002).

Molecules are shown by their SMILES.

Series [1] in a line: L-carnitine as myoprotector in aplidine patients (study APL-A-003-98). The series is classed as in vivo, human. Here is the method: More generally, the invention involves the use of a muscle protector in conjunction with aplidine therapy. We have found in particular that carnitine is beneficial in treating myotoxicity that is associated with chemotherapy with the experimental drug aplidine. […] When L-carnitine 4.5 g/day was added to the therapy (at doses of 1.5 g three times daily), or […] (at doses of […] 3 times daily) patients were able to tolerate doses of aplidine up to 6000 mcg/m 2 every second week. […] Therefore, muscle protectors such as L-carnitine is a useful myoprotector for patients being treated with aplidine or an aplidine analogue.
L-carnitine at a dose of 1.5 grams 3 times per day or 0.033 g/kg 3 times per day was started in all patients of study APL-A-003-98.
The dose may be decreased to manage the above effects.

For series [2], the system named is panel of 25 human tumor cell lines. Put plainly: tumor protection by L-carnitine, cell line panel. It is filed as cell-based. To be noted: initial results. Here is the method: The possibility of tumor protection by L-carnitine was evaluated using a panel of 25 human tumor cell lines.
[3] abbreviates: L-carnitine at the doses used in this study.

Turning to `C[N+](C)(C)C[C@H](O)CC(=O)[O-]` [L-carnitine], the “outcome in patients with prior skeletal muscle toxicity” value in series [1] (4 patients continuing aplidine, L-carnitine 1.5 grams 3 times per day or 0.033 g/kg 3 times per day) is “no skeletal muscle symptoms and just transient grade 1 CK increases”. In addition, the “outcome in patients on L-carnitine prophylaxis from the beginning” value in series [1] (11 patients) is “just an asymptomatic G1 increase in CK”. In series [1] (setting [3]), the only toxicity reported entry is “grade 1 abdominal discornfort and diarrhea”; the tolerability entry is reported as “well tolerated”. Moreover, the “increase of aplidine MTD” value in series [1] (L-carnitine prophylaxis, 24 h every other week infusion study) was found to be 33%. Also, the “outcome after L-carnitine at reduced doses” value in series [1] (two patients, grade 3 with weakness and grade 1 with asthenia) is “symptomatic increases in CK”. For the same compound, the “effect on the antitumor activity of aplidine” value in series [2] is on record as “lack of effect”.
